Data published in article PMC7175122 (Biomolecules, 2020).
Entries after “also recorded” stand apart in the source; their conditions may differ. Read-outs that look alike come from different tables or passages of the source. Square brackets hold non-standard residues; d marks the D form. Side chains are listed from the residue outwards. Peptide text beside a SMILES is read from it. hArg = N=C(N)NCCCC[C@H](N)C(=O)O; ΔPro = O=C(O)[C@@H]1C=CCN1; Dab = NCC[C@H](N)C(=O)O; Dhp = not defined here

What was measured:
VEGF-A165/NRP-1 complex [1] = target: T1, VEGF-A165/NRP-1 complex (Homo sapiens, UniProt O14786); assay: Competitive NRP-1-binding assay (bt-VEGF-A165/NRP-1 complex inhibition, chemiluminescent detection); settings: for IC50: inhibition of VEGF-A165/NRP-1 complex formation; for inhibition values (plateau): 1–50 μM concentrations, IC50 not calculable in this range
T1 construct: purchased R&D Systems (Minneapolis, MN, USA)
T1 sequence (O14786 22-641 limits assumed): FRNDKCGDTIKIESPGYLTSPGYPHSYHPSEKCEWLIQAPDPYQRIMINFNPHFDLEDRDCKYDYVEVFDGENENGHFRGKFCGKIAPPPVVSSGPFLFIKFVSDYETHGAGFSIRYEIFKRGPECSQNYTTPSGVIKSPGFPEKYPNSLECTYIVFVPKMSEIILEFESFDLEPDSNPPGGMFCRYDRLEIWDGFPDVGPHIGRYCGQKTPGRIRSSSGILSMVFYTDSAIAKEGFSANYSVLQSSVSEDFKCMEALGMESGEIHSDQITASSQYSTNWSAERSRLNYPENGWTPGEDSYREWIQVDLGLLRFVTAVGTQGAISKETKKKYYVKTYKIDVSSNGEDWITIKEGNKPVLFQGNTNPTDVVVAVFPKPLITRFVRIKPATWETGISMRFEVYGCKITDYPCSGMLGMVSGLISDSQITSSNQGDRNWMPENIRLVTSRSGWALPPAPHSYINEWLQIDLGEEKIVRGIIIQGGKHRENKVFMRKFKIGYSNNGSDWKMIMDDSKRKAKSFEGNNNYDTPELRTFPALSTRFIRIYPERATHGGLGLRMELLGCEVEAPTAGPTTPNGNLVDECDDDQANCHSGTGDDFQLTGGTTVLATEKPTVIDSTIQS
Protocol: The method used was similar to the one previously described. The first step was a coating of a 96-well plate using 100 μL (200 ng/well) of recombinant human NRP-1. After overnight incubation at 4 °C, nonspecific binding was blocked with 0.5% BSA in PBS. Next, 50 µL of peptide in PBS in selected concentrations and 50 µL of human (bt)-VEGF-A165 (400 ng/mL) in PBS containing 4 µg/mL of heparin were added and incubated for 2 h at r.t. After washing, wells were treated with streptavidin-horseradish peroxidase conjugate in PBS (1:8000) for 45 min. Final washing was followed by an addition of 100 µL chemiluminescent substrate and the immediate quantitative determination of the luminescence. Wells incubated with (bt)-VEGF-A165 only served as a positive control (P), while not-coated by NRP-1 wells were used for a negative control (NS). Percentages of inhibition were calculated by the following formula:100% − [[(S − NS)/(P − NS)]·100%],(1) where S is the signal intensity obtained from wells incubated with the peptide. Presented data are the mean ± SEM of two or three independent experiments, each performed in triplicate.
IC50 of the peptides were calculated using the nonlinear regression function with Prism (GraphPad Software, San Diego, CA, USA). The same software was used to calculate and present the plasma stability assay results. All results are represented as an average, with error bars indicating ± SEM.
Peptides were tested by the bt-VEGF-A165/NRP-1 complex inhibition assay with chemiluminescent detection, as previously described. […] The amino acid was inserted in the same places as the Cys-Asp fragment previously. Compounds 3 and 4 were tested by the bt-VEGF-A165/NRP-1 inhibition assay at 1–50 μM concentrations.
2. Dose-response curves of synthesized peptides
The concentration-dependent inhibitory dose-curve data were plotted as the percentage inhibition normalized to the controls, with the applied curve fits calculated using GraphPad Prism (Version 5.01, GraphPad software). Data are presented as log(inhibitor) versus a normalized response-variable slope. Error bars represent means +/- SEM for two or three independent experiments. […]

VEGF-A165/NRP-1 complex [2] = target: T1, VEGF-A165/NRP-1 complex; settings: cited from earlier work; for inhibition of the formation of the VEGF-A165/NRP-1 complex: concentration of 100 μM
[3] = Degradation assay in human plasma (enzymatic stability); format: in vitro ADME; settings: human blood plasma, 37 °C; for remaining at 24 h: after 24 h, read-out: initial concentration still present in plasma; for remaining at 96 h: after 96 h, read-out: concentration remaining in plasma
Protocol: This assay was performed according to the method described previously. First, human blood plasma was preactivated in an Eppendorf ThermoMixer® Comfort (Hamburg, Germany) for 20 min at 37 °C (350 rpm). Next, the peptide dissolved in water (6 mg/mL; ~5 μmol/mL) was mixed with human plasma (~1 μmol/mL final concentration) and incubated in the same conditions. One-hundred microliters of the mixture was collected in 1.5-mL microtubes at selected time intervals (0–96 h), followed by protein precipitation by adding 100 μL of 98% ethanol and by vortexing for 1 min (3000 min^−1). Samples were centrifuged for 10 min at 4 °C (11,000 g), and 100 μL of supernatant was collected and lyophilized. Reconstituted in 100 μL of water, samples were subjected to RP-HPLC analysis. LC-MS analyses with a Shimadzu LCMS-2020 mass spectrometer (Duisburg, Germany) were done for selected samples. A detailed description of the method can be found in the Supplementary Materials. All results are represented as an average, with error bars indicating ± SEM determined from the results of two independent experiments performed in duplicates.
Compounds were incubated in human plasma at 37 °C, and at selected time intervals, samples were analyzed using RP-HPLC and LC-MS, as described previously. […] After 24 h, almost 50% of each compound’s initial concentration was still present in the plasma. Following the next time intervals, we observed a significant degradation of peptide 3 (~20% after 96 h) but a much slower decrease in the concentration of peptide 4 (~40% after 96 h). This is probably due to the slower detachment of Cys residue from the side chain (peptide 4) compared to detachment from the main chain (peptide 3). […] However, unmodified peptides tend to have short half-lives counted rather in minutes, e.g., ghrelin [48] and endomorphins, and modifications lead to extending this time often to only a few hours.
Table S4. Confidence intervals (95%) determined for calculated IC50.
Compound IC50 (µM) 95% Confidence Intervals
3. Analytical data of serum degradation
Analysis of plasma degradation products was carried out by HPLC-ESI-Q-MS with a Prominence HPLC system (binary pump system LC-20AD and autosampler SIL-20AC HT coupled to a SPD-20A UV detector and LCMS-2020 quadrupole mass detector).
Chromatographic separation was achieved on a Phenomenex Jupiter Proteo C12 column (250 × 4.6 mm) at 35 °C. Mobile phases consisted of H2O:TFA (99.95:0.05 v/v, phase A) and ACN:TFA (99.95:0.05 v/v, phase B) at a flow rate of 1.2 mL/min. […]
Elution was performed with a gradient as follows: t = 25 min., 0%–25% B. The injection volume was 15 μl. UV spectra were recorded at 190 nm.
The electrospray ionization (ESI) was operated in positive mode. […]

PBS = settings: 22 °C, up to 4 h
human blood plasma = settings: 37 °C, up to 96 h
[4] = parameters: method as in PMID 30881620; settings: human plasma; cited from earlier work
[5] = mean ± SEM, read-out: logIC50 (converted)
[6] = reference peptide, read-out: RP IC50

N=C(N)NCCCC[C@H](N)C(=O)NCCCC[C@H](NC(=O)[C@H](CC(=O)O)NC(=O)[C@@H](N)CS)C(=O)N[C@@H](CCN)C(=O)N1CC=C[C@H]1C(=O)N[C@@H](CCCNC(=N)N)C(=O)O [Compound 1, H-Cys-Asp-Lys(hArg)-Dab-Dhp-Arg-OH] (H-CDK(hArg)[Dab][ΔPro]R-OH)
IC50 (VEGF-A165/NRP-1 complex [1]; read-out: IC50): 2.5 µM

ERTCDKPRR [fragment of the VEGF-A165 domain encoded by exons 7 and 8]
inhibition of the formation of the VEGF-A165/NRP-1 complex (VEGF-A165/NRP-1 complex [2]): ~100%

H-CKPRR-OH [Compound 7, CKPRR]
IC50 (VEGF-A165/NRP-1 complex [1]; [5]): 0.187 µM

C[C@@H](O)[C@H](N)C(=O)N[C@@H](CCCCN)C(=O)N1CCC[C@H]1C(=O)N[C@@H](CCCNC(=N)N)C(=O)O [Tuftsin, TKPR, reference compound] (H-TKPR-OH; N-terminus and C-terminus assumed)
IC50 (VEGF-A165/NRP-1 complex [2]; [6]): ≥ 100 µM | inhibition at 100 µM (VEGF-A165/NRP-1 complex [1]; 100 µM concentration, read-out: percentage inhibitory effect): 46% | IC50 (VEGF-A165/NRP-1 complex [1]; read-out: IC50): 100 µM

H-Lys(hArg)-Dab-Dhp-Arg-OH (H-K(hArg)[Dab][Dhp]R-OH; reading uncertain; also: printed as H-Lys(hArg)-Dab-Dhp-Arg-OH) [PP, parent branched peptide, previously published NRP-1 ligand]
IC50 (VEGF-A165/NRP-1 complex [2]; parent peptide, data already published, read-out: IC50): 4.3 µM

H-CLPPR-OH [Compound 5, CLPPR]
IC50 (VEGF-A165/NRP-1 complex [1]; read-out: IC50): 11.4 µM | fold decrease of IC50 compared to the A7R peptide (VEGF-A165/NRP-1 complex [1]; vs A7R): seven-fold

N=C(N)NCCCC[C@H](N)C(=O)NCCCC[C@H](NC(=O)[C@@H](N)CS)C(=O)N[C@@H](CCN)C(=O)N1CC=C[C@H]1C(=O)N[C@@H](CCCNC(=N)N)C(=O)O [Compound 3, H-Cys-Lys(hArg)-Dab-Dhp-Arg-OH] (H-CK(hArg)[Dab][ΔPro]R-OH)
remaining at 24 h [3]: ~50% | remaining at 96 h [3]: ~20% | inhibition values (plateau) (VEGF-A165/NRP-1 complex [1]): ~ 80% | IC50 (VEGF-A165/NRP-1 complex [1]; [5]): 0.0834 µM

CDKPRR
inhibition of the formation of the VEGF-A165/NRP-1 complex (VEGF-A165/NRP-1 complex [2]): ~100%

H-Cys-Lys(hArg)-Dab-Dhp-Arg-OH (H-CK(hArg)[Dab][ΔPro]R-OH; SMILES N=C(N)NCCCC[C@H](N)C(=O)NCCCC[C@H](NC(=O)[C@@H](N)CS)C(=O)N[C@@H](CCN)C(=O)N1CC=C[C@H]1C(=O)N[C@@H](CCCNC(=N)N)C(=O)O)
fragment found (PBS): dimer, minor, 4 h | cleaved bond (human blood plasma): Cys-Lys, first_seen; also recorded: hArg-Lys; also recorded: Lys-Dab

LPPR
share of A7R inhibition of NRP-1 activation by VEGF-A165 for which the sequence is responsible (VEGF-A165/NRP-1 complex [2]): 75%

N=C(N)NCCCC[C@H](NC(=O)[C@H](CC(=O)O)NC(=O)[C@@H](N)CS)C(=O)NCCCC[C@H](N)C(=O)N[C@@H](CCN)C(=O)N1CC=C[C@H]1C(=O)N[C@@H](CCCNC(=N)N)C(=O)O [Compound 2, H-Lys(Cys-Asp-hArg)-Dab-Dhp-Arg-OH] (H-K([hArg-Asp-Cys])[Dab][ΔPro]R-OH)
IC50 (VEGF-A165/NRP-1 complex [1]; read-out: IC50): 2 µM

H-CTKPR-OH [Compound 6, CTKPR]
IC50 (VEGF-A165/NRP-1 complex [1]; read-out: IC50): 9.3 µM | fold increase of ligand affinity compared to tuftsin (VEGF-A165/NRP-1 complex [1]; vs tuftsin): more than 11 fold

H-Lys(hArg)-Dab-Dhp-Arg-OH [PP]
t1/2 [4]: 51 h

DKPRR [CDKPRR lacking the N-terminal Cys]
percentage of inhibition of VEGF-A165/NRP-1 interaction (VEGF-A165/NRP-1 complex [2]; at 100 µM): ~ 20% | IC50 (VEGF-A165/NRP-1 complex [2]; [6]): > 100 µM

N=C(N)NCCCC[C@H](NC(=O)[C@@H](N)CS)C(=O)NCCCC[C@H](N)C(=O)N[C@@H](CCN)C(=O)N1CC=C[C@H]1C(=O)N[C@@H](CCCNC(=N)N)C(=O)O [Compound 4, H-Lys(Cys-hArg)-Dab-Dhp-Arg-OH] (H-K([hArg-Cys])[Dab][ΔPro]R-OH)
remaining at 24 h [3]: ~50% | remaining at 96 h [3]: ~40% | inhibition values (plateau) (VEGF-A165/NRP-1 complex [1]): ~ 80% | IC50 (VEGF-A165/NRP-1 complex [1]; [5]): 0.064 µM

H-Lys(Cys-hArg)-Dab-Dhp-Arg-OH (H-K([hArg-Cys])[Dab][ΔPro]R-OH)
fragment found (PBS): dimer, minor, 4 h | cleaved bond (human blood plasma): Cys-hArg, first_seen; also recorded: hArg-Lys; also recorded: Lys-Dab
